Measured values as given in paper PMC11277421, “Advancing Cardiovascular Drug Screening Using Human Pluripotent Stem Cell-Derived Cardiomyocytes” (International Journal of Molecular Sciences, 2024).
Entries after “also recorded” stand apart in the source; their conditions may differ.

Assays:
iPSC-CMs [1] = assay: Cardiotoxicity test: spontaneous calcium oscillations (FLIPR, EarlyTox dye); settings: for EC50: Homo sapiens, iPSC-CM, read-out: EC50 (beating rate, calcium oscillations); for effect on beating rate: iPSC-CMs, concentration-dependent
Method: Spontaneous calcium oscillations in iPSC-CMs were measured using the FLIPR system in the absence or presence of test compounds. […] This approach allowed the evaluation of proarrhythmic effects of drug candidates based on calcium dynamics occurring within the iPSC-CMs.
Figure 4 Utilization of hPSC-CMs as a platform for high-throughput testing of the cardiotoxicity and effectiveness of drugs. Spontaneous calcium oscillations in iPSC-CMs were measured using the FLIPR system in the absence or presence of test compounds. (a,b) Cardiotoxicity test. […] (b) Testing of the compounds known for their adverse effects in humans. […] (c,d) Efficacy test. (c) iPSC-CMs (c1) and ESC-CMs (c2) were treated with 200 nM ATX-II, a late inward sodium current inducer, which produces atrial arrhythmias mimicking the LQT3 phenotype, followed by exposure to a test compound. […] Error bars, mean ± SEM (N = 3). Asterisks, *—statistically significant differences (Student’s t-test; p < 0.05).
Spontaneous calcium transients in contracting CMs were monitored using the FLIPR Tetra® High Throughput Cellular Screening System (Molecular Devices). hPSC-CMs were plated on the Matrigel-coated wells (8 × 10^4 cells per well) of a 96-well plate. Confluency was monitored after 2 days, and the strong synchronous contractions of cells were confirmed prior to the cardiac calcium oscillation assay. Experiments were conducted after 7–10 days of cell culture. The EarlyTox^TM Cardiotoxicity Kit (Molecular Devices) was used; a calcium-sensitive fluorescent dye was added to the plate according to the manufacturer’s instructions and incubated for 2 h at 37 °C. […] Calcium oscillations were measured at 20, 40, and 60 min after treatment. The acquired data were analyzed for beat frequency and peak width at 10% amplitude using ScreenWorks Peak Pro software version 2.0 (Molecular Devices).

hPSCs = assay: Optimization of CHIR99021 concentration for hPSC-CM generation (morphology, cTnT FACS); type: cell-based, human; settings: tested 0, 6, 9, 12 μM; morphology and cTnT expression on D10
Excerpt: To optimize the culture conditions for CM generation from hPSCs (iPSCs and ESCs), cells were propagated on Matrigel-coated culture plates with maintenance medium, as described in the Section 4. Subsequently, hPSCs underwent differentiation for 10 days, followed by maturation for another 10 days or longer if needed (Figure 1a). For the initial induction of mesodermal differentiation, CHIR99021, a GSK3 inhibitor and Wnt activator, was used. On the first day of hPSC cm generation, hPSCs were treated with CHIR99021 at various concentrations (0, 6, 9, and 12 μM) (Figure 1b). The optimal concentration of CHIR99021 for the efficient generation of hPSC-CMs was determined to be 9 μM based on their morphology and cTnT expression (Figure 1b). For further differentiation into cardiac progenitor cells, Wnt-C59, a small molecule that inhibits Wnt palmitoylation, was added to the differentiation medium from D2 to D4. For late differentiation into contracting CMs from D6 to D10, insulin was added. Contracting CMs were observed between D9 and D11 (Supplementary Figure S1). During differentiation over 10 days, there were changes in the expression levels of CM-related genes (Figure 1c). […] Moreover, GATA4, NKX2.5, TBX5, and ISL1, transcription factors that play key roles in cardiac development, were highly expressed on D10 compared with D0 or D5, indicating the induction of cardiac lineage cells. […]

iPSC-CMs [2] = assay: Efficacy test: ATX-II-induced LQT3 phenotype, calcium oscillations in iPSC-CMs; type: cell-based, human; settings: for average peak width after ATX-II, reversal by test compound: iPSC-CMs pretreated with 200 nM ATX-II
Excerpt: (§1) (a,b) Cardiotoxicity test. […] (c,d) Efficacy test. […] Error bars, mean ± SEM (N = 3).
(§2) For the efficacy test (Figure 4c), iPSC-CMs and ESC-CMs were generated as previously mentioned and used to screen effective compounds for reversing arrhythmia phenotype.

ESC-CMs = assay: Efficacy test: ATX-II-induced LQT3 phenotype, calcium oscillations in ESC-CMs; type: cell-based, human; settings: for average peak width after ATX-II, reversal by test compound: ESC-CMs pretreated with 200 nM ATX-II
Excerpt: as §1, §2

| Molecule | EC50 (iPSC-CMs [1]) [µM] | effect on beating rate (iPSC-CMs [1]) | other results |
| --- | --- | --- | --- |
| CN(CCOc1ccc(NS(C)(=O)=O)cc1)CCc1ccc(NS(C)(=O)=O)cc1 [dofetilide] | 0.018 | decrease in the beating rate | – |
| COc1ccc(CCN(C)CCCC(C#N)(c2ccc(OC)c(OC)c2)C(C)C)cc1OC (centres unmarked) [verapamil] | 0.522 | increased the beating rate | – |
| Cc1c[nH]c(-c2cnc(NCCNc3ccc(C#N)cn3)nc2-c2ccc(Cl)cc2Cl)n1 [CHIR99021] | – | – | optimal concentration for efficient generation of hPSC-CMs (hPSCs): 9 µM |
| CCCN(CCc1cccs1)[C@H]1CCc2c(O)cccc2C1 [rotigotine] | – | – | average peak width after ATX-II, reversal by test compound (iPSC-CMs [2]): restored to the level of untreated control cells; also recorded: significantly reverted the average peak width to the level of untreated control cells; average peak width after ATX-II, reversal by test compound (ESC-CMs): restored to the level of untreated control cells; also recorded: significantly reverted the average peak width to the level of untreated control cells |
| O=C(NCC1CCCCN1)c1cc(OCC(F)(F)F)ccc1OCC(F)(F)F (centres unmarked) [flecainide] | 17.5 | inhibited the beating rates | – |
| CCCN1CCCC[C@H]1C(=O)Nc1c(C)cccc1C [ropivacaine] | – | – | average peak width after ATX-II, reversal by test compound (iPSC-CMs [2]): restored to the level of untreated control cells; also recorded: significantly reverted the average peak width to the level of untreated control cells; average peak width after ATX-II, reversal by test compound (ESC-CMs): restored to the level of untreated control cells; also recorded: significantly reverted the average peak width to the level of untreated control cells |
| ATX-II: late inward sodium current inducer known to produce atrial arrhythmias, mimicking LQT3 | – | – | average peak width (effect of ATX-II itself) (iPSC-CMs [2]; 200 nM, iPSC-CMs): higher average peak widths; average peak width (effect of ATX-II itself) (ESC-CMs; 200 nM, ESC-CMs): higher average peak widths |
| CC(C)c1nc(CN(C)C(=O)N[C@H](C(=O)N[C@@H](Cc2ccccc2)C[C@H](O)[C@H](Cc2ccccc2)NC(=O)OCc2cncs2)C(C)C)cs1 [ritonavir] | 6.09 | inhibited the beating rates | – |
| COc1ccc([C@@H]2Sc3ccccc3N(CCN(C)C)C(=O)[C@@H]2OC(C)=O)cc1 [diltiazem] | 5.97 | increased the beating rate | – |
